Data from US9340590B2 (priority 2011, dated 2016).
Read-outs that look alike come from different tables or passages of the source. Positions of bridges follow the written chain, without caps; N, C: chain ends. Non-standard residues stand in square brackets, D forms with d. Residues, ends and D or L forms follow the SMILES beside them. Cit = NC(=O)NCCC[C@H](N)C(=O)O

Experiments:
Assay in all cases: cell-based
hNav1.5 = hNav1.5 (Homo sapiens, UniProt Q14524); details: IonWorks Quattro, hNav1.5, read-out: IWQ Use Nav1.5
hNav1.7 = hNav1.7 (Homo sapiens, UniProt Q15858); format: cell-based; details: IonWorks Quattro, hNav1.7, read-out: IWQ Use Nav1.7
hNav1.3 = hNav1.3 (Homo sapiens, UniProt Q9NY46); details: IonWorks Quattro, hNav1.3, read-out: IWQ Use Nav1.3
Chain of hNav1.3 (Q9NY46 whole entry, looked up): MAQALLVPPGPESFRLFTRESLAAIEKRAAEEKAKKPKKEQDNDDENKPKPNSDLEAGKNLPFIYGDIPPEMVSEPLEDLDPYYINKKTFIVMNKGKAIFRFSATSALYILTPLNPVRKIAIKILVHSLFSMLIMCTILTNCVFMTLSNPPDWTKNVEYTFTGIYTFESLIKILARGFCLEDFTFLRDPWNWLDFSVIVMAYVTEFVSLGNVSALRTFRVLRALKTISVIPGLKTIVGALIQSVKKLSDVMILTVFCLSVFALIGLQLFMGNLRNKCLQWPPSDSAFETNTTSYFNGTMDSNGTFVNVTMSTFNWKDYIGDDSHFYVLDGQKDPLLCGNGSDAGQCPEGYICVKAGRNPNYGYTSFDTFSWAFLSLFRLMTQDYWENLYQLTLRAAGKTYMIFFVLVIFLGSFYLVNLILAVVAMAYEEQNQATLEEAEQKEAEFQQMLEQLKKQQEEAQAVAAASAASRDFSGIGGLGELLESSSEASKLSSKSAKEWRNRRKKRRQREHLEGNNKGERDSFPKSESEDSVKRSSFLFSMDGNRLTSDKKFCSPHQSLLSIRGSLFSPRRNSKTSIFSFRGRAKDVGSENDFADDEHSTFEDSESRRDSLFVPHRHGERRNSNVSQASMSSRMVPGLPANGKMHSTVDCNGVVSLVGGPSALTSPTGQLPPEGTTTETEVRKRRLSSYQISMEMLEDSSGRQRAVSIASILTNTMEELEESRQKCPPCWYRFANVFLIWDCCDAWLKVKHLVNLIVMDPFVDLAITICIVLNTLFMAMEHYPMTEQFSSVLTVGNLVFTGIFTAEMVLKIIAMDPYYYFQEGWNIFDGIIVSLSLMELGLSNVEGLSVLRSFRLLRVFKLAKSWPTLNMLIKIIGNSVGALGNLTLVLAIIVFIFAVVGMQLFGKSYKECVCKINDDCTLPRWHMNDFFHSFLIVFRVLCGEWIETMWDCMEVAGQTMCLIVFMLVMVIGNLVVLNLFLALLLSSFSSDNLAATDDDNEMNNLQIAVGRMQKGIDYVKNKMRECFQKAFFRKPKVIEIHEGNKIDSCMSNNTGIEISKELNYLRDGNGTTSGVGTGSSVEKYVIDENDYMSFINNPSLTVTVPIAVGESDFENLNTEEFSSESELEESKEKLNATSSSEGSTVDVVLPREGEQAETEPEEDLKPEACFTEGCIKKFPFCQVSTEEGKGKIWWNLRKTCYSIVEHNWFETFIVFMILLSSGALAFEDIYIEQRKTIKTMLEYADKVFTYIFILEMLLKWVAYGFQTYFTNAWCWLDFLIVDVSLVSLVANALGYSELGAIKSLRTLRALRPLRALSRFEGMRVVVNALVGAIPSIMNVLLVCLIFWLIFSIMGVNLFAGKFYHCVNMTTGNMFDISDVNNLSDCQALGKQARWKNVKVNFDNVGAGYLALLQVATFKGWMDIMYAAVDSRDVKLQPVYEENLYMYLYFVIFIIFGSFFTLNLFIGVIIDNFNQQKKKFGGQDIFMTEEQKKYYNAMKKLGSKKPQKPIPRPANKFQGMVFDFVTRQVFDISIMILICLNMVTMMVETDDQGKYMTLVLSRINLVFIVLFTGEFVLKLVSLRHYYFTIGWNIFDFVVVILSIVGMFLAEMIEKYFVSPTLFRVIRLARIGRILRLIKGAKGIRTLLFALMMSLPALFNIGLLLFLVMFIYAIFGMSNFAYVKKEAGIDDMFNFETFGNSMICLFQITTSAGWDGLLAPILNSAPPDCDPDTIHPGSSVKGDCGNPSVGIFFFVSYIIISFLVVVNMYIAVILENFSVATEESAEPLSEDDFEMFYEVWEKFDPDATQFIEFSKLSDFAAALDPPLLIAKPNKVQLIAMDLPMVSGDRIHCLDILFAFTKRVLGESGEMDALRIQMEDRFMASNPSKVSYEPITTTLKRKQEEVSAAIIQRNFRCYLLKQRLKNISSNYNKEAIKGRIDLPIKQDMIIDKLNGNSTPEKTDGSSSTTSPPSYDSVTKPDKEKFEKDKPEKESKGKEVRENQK

Chain of hNav1.5 (Q14524 whole entry, looked up): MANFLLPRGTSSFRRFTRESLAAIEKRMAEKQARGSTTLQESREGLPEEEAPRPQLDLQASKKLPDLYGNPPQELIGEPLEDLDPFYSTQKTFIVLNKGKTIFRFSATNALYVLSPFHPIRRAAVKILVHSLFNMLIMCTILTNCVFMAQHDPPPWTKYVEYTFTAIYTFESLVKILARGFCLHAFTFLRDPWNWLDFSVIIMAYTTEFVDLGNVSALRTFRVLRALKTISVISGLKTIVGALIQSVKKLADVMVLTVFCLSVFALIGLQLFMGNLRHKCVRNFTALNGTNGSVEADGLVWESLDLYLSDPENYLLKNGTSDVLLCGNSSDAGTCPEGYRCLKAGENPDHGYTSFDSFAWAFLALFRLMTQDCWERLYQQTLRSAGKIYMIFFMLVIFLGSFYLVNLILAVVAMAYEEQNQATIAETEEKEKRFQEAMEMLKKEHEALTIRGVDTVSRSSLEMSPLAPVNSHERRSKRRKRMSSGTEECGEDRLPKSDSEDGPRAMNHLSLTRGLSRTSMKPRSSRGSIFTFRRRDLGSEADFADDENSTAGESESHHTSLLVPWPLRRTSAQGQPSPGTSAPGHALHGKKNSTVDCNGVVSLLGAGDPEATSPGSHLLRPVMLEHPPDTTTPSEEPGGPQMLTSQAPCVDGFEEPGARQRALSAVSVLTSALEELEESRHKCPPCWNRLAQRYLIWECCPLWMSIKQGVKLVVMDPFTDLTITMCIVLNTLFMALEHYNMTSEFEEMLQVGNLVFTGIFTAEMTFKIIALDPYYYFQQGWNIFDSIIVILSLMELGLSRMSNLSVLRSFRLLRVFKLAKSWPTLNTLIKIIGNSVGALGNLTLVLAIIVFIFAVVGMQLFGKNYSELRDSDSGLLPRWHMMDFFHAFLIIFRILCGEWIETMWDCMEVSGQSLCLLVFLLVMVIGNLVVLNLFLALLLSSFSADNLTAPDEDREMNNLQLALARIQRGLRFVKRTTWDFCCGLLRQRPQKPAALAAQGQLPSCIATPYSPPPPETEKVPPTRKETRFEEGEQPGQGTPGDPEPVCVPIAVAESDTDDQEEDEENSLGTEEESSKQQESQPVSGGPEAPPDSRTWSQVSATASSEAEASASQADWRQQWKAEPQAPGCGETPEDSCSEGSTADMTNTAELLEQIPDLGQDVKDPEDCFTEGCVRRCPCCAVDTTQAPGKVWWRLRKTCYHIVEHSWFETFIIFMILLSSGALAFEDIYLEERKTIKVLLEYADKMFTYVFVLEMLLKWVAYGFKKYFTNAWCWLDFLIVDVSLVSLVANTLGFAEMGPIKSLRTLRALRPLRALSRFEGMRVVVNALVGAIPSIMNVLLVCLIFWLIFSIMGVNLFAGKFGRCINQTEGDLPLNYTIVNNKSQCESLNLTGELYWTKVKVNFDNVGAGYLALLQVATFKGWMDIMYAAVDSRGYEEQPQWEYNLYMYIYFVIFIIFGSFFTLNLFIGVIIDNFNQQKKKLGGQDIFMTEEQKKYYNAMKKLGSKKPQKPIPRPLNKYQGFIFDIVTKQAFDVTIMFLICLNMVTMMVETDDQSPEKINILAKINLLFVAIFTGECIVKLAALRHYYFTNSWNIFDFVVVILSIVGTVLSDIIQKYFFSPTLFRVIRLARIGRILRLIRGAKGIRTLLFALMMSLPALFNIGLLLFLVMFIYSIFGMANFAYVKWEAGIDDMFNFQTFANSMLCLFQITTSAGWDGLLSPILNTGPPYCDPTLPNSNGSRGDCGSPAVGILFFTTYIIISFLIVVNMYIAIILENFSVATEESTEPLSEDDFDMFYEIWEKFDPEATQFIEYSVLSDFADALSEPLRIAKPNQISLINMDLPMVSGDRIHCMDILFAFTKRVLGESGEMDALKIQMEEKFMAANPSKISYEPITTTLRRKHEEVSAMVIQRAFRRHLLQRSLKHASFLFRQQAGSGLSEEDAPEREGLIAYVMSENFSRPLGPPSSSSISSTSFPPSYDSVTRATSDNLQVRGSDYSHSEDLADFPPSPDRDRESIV

CC[C@H](C)[C@@H]1NC(=O)[C@@H]2CSSC[C@@H]3NC(=O)[C@H](C(C)C)NC(=O)[C@H](CC(C)C)NC(=O)[C@H](CC(N)=O)NC(=O)[C@@H]4CCCN4C(=O)[C@H](CCCNC(=N)N)NC(=O)[C@H](CSSC[C@H](NC(=O)[C@@H](N)CC(=O)O)C(=O)N[C@@H](CC(C)C)C(=O)NCC(=O)N[C@@H](C(C)C)C(=O)N[C@@H](CCSC)C(=O)N[C@@H](CCCNC(=N)N)C(=O)N[C@@H](CCCCN)C(=O)N2)NC(=O)[C@H](CSSC[C@@H](C(=O)N[C@@H](CCCCN)C(=O)N[C@@H](Cc2ccc(O)cc2)C(=O)N[C@H](C(=O)N[C@@H](Cc2ccccc2)C(N)=O)C(C)C)NC(=O)[C@H](Cc2c[nH]c4ccccc24)NC(=O)[C@H](CCCCN)NC(=O)[C@H](Cc2c[nH]cn2)NC(=O)[C@H]([C@@H](C)O)NC(=O)[C@H](CCCNC(N)=O)NC(=O)[C@H](CO)NC3=O)NC(=O)[C@H](CCCCN)NC(=O)[C@H](CC(=O)O)NC(=O)[C@H](CC(N)=O)NC(=O)[C@H](CC(=O)O)NC(=O)[C@@H]2CCCN2C1=O [compound 713] (H-DCLGVMRKCIPDNDKCCRPNLVCS[Cit]THKWCKYVF-NH2; disulfide 2-17, 9-23, 16-30)
IC50 (hNav1.5; use-dependent protocol): 36 µM
IC50 (hNav1.7; use-dependent protocol): 0.83 µM
IC50 (hNav1.3; use-dependent protocol): 4.2 µM

CSCC[C@@H]1NC(=O)[C@H]([C@@H](C)O)NC(=O)CNC(=O)[C@H](CC(C)C)NC(=O)[C@@H](NC(=O)[C@@H](N)CC(=O)O)CSSC[C@@H]2NC(=O)[C@@H]3CSSC[C@@H](C(=O)N[C@@H](CCCCN)C(=O)N[C@@H](Cc4ccc(O)cc4)C(=O)N[C@H](C(=O)N[C@@H](Cc4ccccc4)C(N)=O)C(C)C)NC(=O)[C@H](Cc4c[nH]c5ccccc45)NC(=O)[C@H](CCCCN)NC(=O)[C@H](Cc4c[nH]cn4)NC(=O)[C@H]([C@@H](C)O)NC(=O)[C@H](CCCNC(=N)N)NC(=O)[C@H](CO)NC(=O)[C@H](CSSC[C@H](NC(=O)[C@H](CCCCN)NC(=O)[C@H](CCCNC(=N)N)NC1=O)C(=O)N[C@@H](CC(=O)O)C(=O)N1CCC[C@H]1C(=O)N[C@@H](CC(=O)O)C(=O)N[C@@H](CC(N)=O)C(=O)N[C@@H](CC(=O)O)C(=O)N[C@@H](CCCCN)C(=O)N3)NC(=O)[C@H](C(C)C)NC(=O)[C@H](CC(C)C)NC(=O)[C@H](CC(N)=O)NC(=O)[C@@H]1CCCN1C(=O)[C@H](CCCNC(=N)N)NC2=O [compound 714] (H-DCLGTMRKCDPDNDKCCRPNLVCSRTHKWCKYVF-NH2; disulfide 2-17, 9-23, 16-30)
IC50 (hNav1.5; use-dependent protocol): 48 µM
IC50 (hNav1.7; use-dependent protocol): 1.6 µM
IC50 (hNav1.3; use-dependent protocol): > 5 µM

CC[C@H](C)[C@@H]1NC(=O)[C@@H]2CSSC[C@@H]3NC(=O)[C@H](C(C)C)NC(=O)[C@H](CC(C)C)NC(=O)[C@H](CC(N)=O)NC(=O)[C@@H]4CCCN4C(=O)[C@H](CCCNC(=N)N)NC(=O)[C@H](CSSC[C@H](NC(=O)[C@@H](N)CC(=O)O)C(=O)N[C@@H](CC(C)C)C(=O)NCC(=O)N[C@@H](C)C(=O)N[C@@H](CCSC)C(=O)N[C@@H](CCCNC(=N)N)C(=O)N[C@@H](CCCCN)C(=O)N2)NC(=O)[C@H](CSSC[C@@H](C(=O)N[C@@H](CCCCN)C(=O)N[C@@H](Cc2ccc(O)cc2)C(=O)N[C@H](C(=O)N[C@@H](Cc2ccccc2)C(N)=O)C(C)C)NC(=O)[C@H](Cc2c[nH]c4ccccc24)NC(=O)CNC(=O)[C@H](Cc2c[nH]cn2)NC(=O)[C@H]([C@@H](C)O)NC(=O)[C@H](CCCNC(=N)N)NC(=O)[C@H](CO)NC3=O)NC(=O)[C@H](CCCCN)NC(=O)[C@H](CC(=O)O)NC(=O)[C@H](CC(N)=O)NC(=O)[C@H](CC(=O)O)NC(=O)[C@@H]2CCCN2C1=O [compound 715] (H-DCLGAMRKCIPDNDKCCRPNLVCSRTHGWCKYVF-NH2; disulfide 2-17, 9-23, 16-30)
IC50 (hNav1.5; use-dependent block): > 50 µM
IC50 (hNav1.7; use-dependent block): 1 µM
IC50 (hNav1.3; use-dependent block): > 5 µM

CCCC[C@@H]1NC(=O)[C@H](C)NC(=O)CNC(=O)[C@H](CC(C)C)NC(=O)[C@@H](NC(=O)[C@@H](N)CC(=O)O)CSSC[C@@H]2NC(=O)[C@@H]3CSSC[C@@H](C(=O)N[C@@H](CCCCN)C(=O)N[C@@H](Cc4ccc(O)cc4)C(=O)N[C@H](C(=O)N[C@@H](Cc4ccccc4)C(N)=O)C(C)C)NC(=O)[C@H](Cc4c[nH]c5ccccc45)NC(=O)[C@H](CCCCN)NC(=O)[C@H](Cc4cnc[nH]4)NC(=O)[C@H]([C@@H](C)O)NC(=O)[C@H](CCCNC(=N)N)NC(=O)[C@H](CO)NC(=O)[C@H](CSSC[C@H](NC(=O)[C@H](CCCCN)NC(=O)[C@H](CCCNC(=N)N)NC1=O)C(=O)N[C@@H]([C@@H](C)CC)C(=O)N1CCC[C@H]1C(=O)N[C@@H](CC(=O)O)C(=O)N[C@@H](CC(N)=O)C(=O)N[C@@H](CC(=O)O)C(=O)N[C@@H](CCCCN)C(=O)N3)NC(=O)[C@H](C(C)C)NC(=O)[C@H](CC(C)C)NC(=O)[C@H](CC(N)=O)NC(=O)[C@@H]1CCCN1C(=O)[C@H](CCCNC(=N)N)NC2=O [compound 721]
IC50 (hNav1.5; use-dependent block): 45 µM
IC50 (hNav1.7; use-dependent block): 0.15 µM
IC50 (hNav1.3; use-dependent block): 0.41 µM

CC(C)C[C@@H]1NC(=O)[C@H](C)NC(=O)CNC(=O)[C@H](CC(C)C)NC(=O)[C@@H](NC(=O)[C@@H](N)CC(=O)O)CSSC[C@@H]2NC(=O)[C@@H]3CSSC[C@@H](C(=O)N[C@@H](CCCCN)C(=O)N[C@@H](Cc4ccc(O)cc4)C(=O)N[C@H](C(=O)N[C@@H](Cc4ccccc4)C(N)=O)C(C)C)NC(=O)[C@H](Cc4c[nH]c5ccccc45)NC(=O)[C@H](CCCCN)NC(=O)[C@H](Cc4c[nH]cn4)NC(=O)[C@H]([C@@H](C)O)NC(=O)[C@H](CCCNC(=N)N)NC(=O)[C@H](CO)NC(=O)[C@H](CSSC[C@H](NC(=O)[C@H](CCCCN)NC(=O)[C@H](CCCNC(=N)N)NC1=O)C(=O)N[C@@H](CCC(=O)O)C(=O)N1CCC[C@H]1C(=O)N[C@@H](CC(=O)O)C(=O)N[C@@H](CC(N)=O)C(=O)N[C@@H](CC(=O)O)C(=O)N[C@@H](CCCCN)C(=O)N3)NC(=O)[C@H](C(C)C)NC(=O)[C@H](CC(C)C)NC(=O)[C@H](CC(N)=O)NC(=O)[C@@H]1CCCN1C(=O)[C@H](CCCNC(=N)N)NC2=O [compound 723]
IC50 (hNav1.5; use-dependent block): > 50 µM
IC50 (hNav1.7; use-dependent block): 0.38 µM
IC50 (hNav1.3; use-dependent block): 1.2 µM

CC(C)C[C@@H]1NC(=O)[C@@H](NC(=O)[C@@H](N)CC(=O)O)CSSC[C@@H]2NC(=O)[C@@H]3CSSC[C@@H](C(=O)N[C@@H](CCCCN)C(=O)N[C@@H](Cc4ccc(O)cc4)C(=O)N[C@H](C(=O)N[C@@H](Cc4ccccc4)C(N)=O)C(C)C)NC(=O)[C@H](Cc4c[nH]c5ccccc45)NC(=O)[C@H](CCCCN)NC(=O)[C@H](Cc4c[nH]cn4)NC(=O)[C@H]([C@@H](C)O)NC(=O)[C@H](CCCNC(=N)N)NC(=O)[C@H](CO)NC(=O)[C@H](CSSC[C@H](NC(=O)[C@H](CCCCN)NC(=O)[C@H](CCCNC(=N)N)NC(=O)[C@H](Cc4ccccc4)NC(=O)[C@H](C)NC(=O)CNC1=O)C(=O)N[C@@H](CCC(=O)O)C(=O)N1CCC[C@H]1C(=O)N[C@@H](CC(=O)O)C(=O)N[C@@H](CC(N)=O)C(=O)N[C@@H](CC(=O)O)C(=O)N[C@@H](CCCCN)C(=O)N3)NC(=O)[C@H](C(C)C)NC(=O)[C@H](CC(C)C)NC(=O)[C@H](CC(N)=O)NC(=O)[C@@H]1CCCN1C(=O)[C@H](CCCNC(=N)N)NC2=O [compound 724] (H-DCLGAFRKCEPDNDKCCRPNLVCSRTHKWCKYVF-NH2; disulfide 2-17, 9-23, 16-30)
IC50 (hNav1.5; use-dependent block): 36 µM
IC50 (hNav1.7; use-dependent block): 0.38 µM
IC50 (hNav1.3; use-dependent block): 0.32 µM

CC[C@H](C)[C@@H]1NC(=O)[C@@H]2CSSC[C@@H]3NC(=O)[C@H](C(C)C)NC(=O)[C@H](CC(C)C)NC(=O)[C@H](CC(N)=O)NC(=O)[C@@H]4CCCN4C(=O)[C@H](CCCNC(=N)N)NC(=O)[C@H](CSSC[C@H](NC(=O)[C@@H](N)CC(=O)O)C(=O)N[C@@H](CC(C)C)C(=O)NCC(=O)N[C@@H](C)C(=O)N[C@@H](CC(C)C)C(=O)N[C@@H](CCCNC(=N)N)C(=O)N[C@@H](CCCCN)C(=O)N2)NC(=O)[C@H](CSSC[C@@H](C(=O)N[C@@H](CCCCN)C(=O)N[C@@H](Cc2ccc(O)cc2)C(=O)N[C@H](C(=O)N[C@@H](Cc2ccccc2)C(N)=O)C(C)C)NC(=O)[C@H](Cc2c[nH]c4ccccc24)NC(=O)[C@H](CCCCN)NC(=O)[C@H](Cc2c[nH]cn2)NC(=O)[C@H]([C@@H](C)O)NC(=O)[C@H](CCCNC(=N)N)NC(=O)[C@H](CO)NC3=O)NC(=O)[C@H](CCCCN)NC(=O)[C@H](CC(=O)O)NC(=O)[C@H](CC(N)=O)NC(=O)[C@H](CCC(=O)O)NC(=O)[C@@H]2CCCN2C1=O [compound 726]
IC50 (hNav1.5; use-dependent block): > 50 µM
IC50 (hNav1.7; use-dependent block): 0.35 µM
IC50 (hNav1.3; use-dependent block): 0.58 µM

CC[C@H](C)[C@@H]1NC(=O)[C@@H]2CSSC[C@@H]3NC(=O)[C@H](C(C)C)NC(=O)[C@H](CC(C)C)NC(=O)[C@H](CC(N)=O)NC(=O)[C@@H]4CCCN4C(=O)[C@H](CCCNC(=N)N)NC(=O)[C@H](CSSC[C@H](NC(=O)[C@@H](N)CC(=O)O)C(=O)N[C@@H](CC(C)C)C(=O)NCC(=O)N[C@@H](C)C(=O)N[C@@H](CC(C)C)C(=O)N[C@@H](CCCNC(=N)N)C(=O)N[C@@H](CCCCN)C(=O)N2)NC(=O)[C@H](CSSC[C@@H](C(=O)N[C@@H](CCCCN)C(=O)N[C@@H](Cc2ccc(O)cc2)C(=O)N[C@H](C(=O)N[C@@H](Cc2ccccc2)C(N)=O)C(C)C)NC(=O)[C@H](Cc2c[nH]c4ccccc24)NC(=O)[C@H](CCC(=O)O)NC(=O)[C@H](Cc2c[nH]cn2)NC(=O)[C@H]([C@@H](C)O)NC(=O)[C@H](CCCNC(=N)N)NC(=O)[C@H](CO)NC3=O)NC(=O)[C@H](CCCCN)NC(=O)[C@H](CC(=O)O)NC(=O)[C@H](CC(N)=O)NC(=O)[C@H](CC(=O)O)NC(=O)[C@@H]2CCCN2C1=O [compound 728]
IC50 (hNav1.5; use-dependent block): 43 µM
IC50 (hNav1.7; use-dependent block): 1.6 µM
IC50 (hNav1.3; use-dependent block): 6.6 µM
